Measurements as given in publication PMC12539867, “Systematic identification of terpene synthases from sacred lotus (Nelumbo nucifera) and heterologous biosynthesis of the insecticidal and antimicrobial compound γ-eudesmol” (Horticulture Research, 2025).

Experiments:
NnTPS10 = tested on: T1, NnTPS10; assay: steady-state kinetics, purified enzyme; format: biochemical, Nelumbo nucifera; details: 25 °C, pH 7.5
T1 construct: TPS-a; 565 residues; codon-optimised; purified from E. coli for kinetics; S. cerevisiae JCR27 for mutants; N314, L530, V537; D461-Y537-D541 triad also printed

NnTPS5 = target: T2, NnTPS5 (Nelumbo nucifera, UniProt A0A822ZHR2); assay: yeast co-expression with GGPPS and NnTPS6 or NnTPS7, GC-MS of ent-kaurene; format: cell-based; details: substrate formed in the cell
T2 construct: gene HUJ06_002290; codon-optimised; S. cerevisiae JCR27 with NnTPS6 or NnTPS7 and GGPPS
T2 sequence (A0A822ZHR2 41-812): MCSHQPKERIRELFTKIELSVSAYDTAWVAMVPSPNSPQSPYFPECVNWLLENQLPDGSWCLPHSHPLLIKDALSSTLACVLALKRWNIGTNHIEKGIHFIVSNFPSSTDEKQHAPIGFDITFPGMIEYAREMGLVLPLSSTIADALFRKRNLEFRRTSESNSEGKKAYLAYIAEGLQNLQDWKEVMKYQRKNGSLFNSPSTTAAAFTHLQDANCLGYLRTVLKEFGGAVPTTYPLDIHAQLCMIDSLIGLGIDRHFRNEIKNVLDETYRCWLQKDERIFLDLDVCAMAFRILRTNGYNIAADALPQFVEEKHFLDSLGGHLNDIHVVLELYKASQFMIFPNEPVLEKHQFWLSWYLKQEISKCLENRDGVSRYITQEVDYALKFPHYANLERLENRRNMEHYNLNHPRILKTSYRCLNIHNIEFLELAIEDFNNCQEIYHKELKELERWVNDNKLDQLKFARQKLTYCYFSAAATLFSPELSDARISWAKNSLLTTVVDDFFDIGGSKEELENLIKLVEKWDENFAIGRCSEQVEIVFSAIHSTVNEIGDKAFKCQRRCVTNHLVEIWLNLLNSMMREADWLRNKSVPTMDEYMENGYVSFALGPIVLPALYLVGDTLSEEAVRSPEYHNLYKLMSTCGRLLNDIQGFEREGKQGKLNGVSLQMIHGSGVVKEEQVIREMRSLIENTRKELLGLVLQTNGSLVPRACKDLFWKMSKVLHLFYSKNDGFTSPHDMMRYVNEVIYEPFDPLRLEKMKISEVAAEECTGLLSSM

CC(C)=CCC/C(C)=C/CC/C(C)=C/COP(=O)(O)OP(=O)(O)O [FPP]
Km (NnTPS10): 16.7 µM

C=C1CC[C@@H]2C(C)(C)CCC[C@@]2(C)[C@@H]1CC/C(C)=C/COP(=O)(O)OP(=O)(O)O [ent-CPP]
yeast co-expression with GGPPS and NnTPS6 or NnTPS7, GC-MS of ent-kaurene (NnTPS5): combining NnTPS6, NnTPS5, and GGPPS, a new product (D1) can be identified as ent-kaurene
